Test results published in patent US4467086A, “Cephalosporin antibiotic” (Glaxo Group Limited, priority 1979, dated 1984).
Structures can show the parent of a compound that is named as a salt.

Legend:
[1] = storage stability of the solid; type: physicochemical
[2] = pharmacokinetics in human volunteers; type: in vivo
Pseudomonas organisms = assay: antibacterial activity, Pseudomonas; type: cell-based; details: organisms normally difficult to combat with β-lactam antibiotics
Serratia = assay: antibacterial activity, Serratia; type: cell-based; details: organisms normally difficult to combat with β-lactam antibiotics
[3] = in vivo
[4] = tested on: gram-negative organisms, including many β-lactamase-producing gram-negative strains; details: as described in UK Patent Specification No. 2025398, cited from earlier work
Providence = assay: antibacterial activity, Providence; type: cell-based; details: organisms normally difficult to combat with β-lactam antibiotics
Pseudomonas aeruginosa = assay: experimental infections in mice with Pseudomonas aeruginosa; type: in vivo
bacteria = assay: antibacterial properties: human serum effect, inoculum effect, bactericidal action; type: cell-based
indolepositive Proteus = assay: antibacterial activity, indole-positive Proteus; type: cell-based; details: organisms normally difficult to combat with β-lactam antibiotics
gram-negative bacteria = assay: experimental infections in mice with gram-negative bacteria; type: in vivo
early clinical results = type: in vivo, human

Structure (SMILES)	stability ([1]; crystalline form, stored for an extended period at a temperature of 50° C.)	serum levels after injection [2]	activity against Pseudomonas (Pseudomonas organisms)	activity against Serratia (Serratia)	distribution in the body [3]	antibiotic activity spectrum [4]	activity against gram-negative organisms ([4]; including many β-lactamase-producing gram-negative strains)	activity against Providence (Providence)	protection against Pseudomonas aeruginosa infection (Pseudomonas aeruginosa)	protection compared with aminoglycoside treatment (Pseudomonas aeruginosa; versus an aminoglycoside such as amikacin)	effect of human serum on antibacterial properties (bacteria)	stability ([1]; amorphous solid, especially at elevated temperatures)	activity against indole-positive Proteus (indolepositive Proteus)	treatment of experimental infections (gram-negative bacteria)	clinical antibiotic properties (early clinical results)
CC(C)(O/N=C(\C(=O)N[C@@H]1C(=O)N2C(C(=O)[O-])=C(C[n+]3ccccc3)CS[C@H]12)c1csc(N)n1)C(=O)O [(6R,7R)-7-[(Z)-2-(2-aminothiazol-4-yl)-2-(2-carboxyprop-2-oxyimino)acetamido]-3-(1-pyridiniummethyl)ceph-3-em-4-carboxylate bishydrochloride]	remarkably stable														
CC(C)(O/N=C(\C(=O)N[C@@H]1C(=O)N2C(C(=O)[O-])=C(C[n+]3ccccc3)CS[C@H]12)c1csc(N)n1)C(=O)O [ceftazidime, (6R,7R)-7-[(Z)-2-(2-aminothiazol-4-yl)-2-(2-carboxyprop-2-oxyimino)acetamido]-3-(1-pyridiniummethyl)ceph-3-em-4-carboxylate]		high and long lasting	excellent activity	excellent activity	well distributed	broad spectrum antibiotic activity	unusually high activity	excellent activity	excellent protection	comparable	not impaired	not particularly satisfactory	excellent activity	successfully treated	reproduces in the clinic the excellent antibiotic properties
